# Data published in patent US20180265867A1, “NUCLEIC ACID MOLECULES WITH ENHANCED ACTIVITY” (priority 2015, published 2018).
# d = 2'-deoxy (DNA); r = 2'-OH (RNA)
# Tested on: MG63 cells
# Assay: Fluorescence / confocal microscopy of cellular distribution in MG63 cells
# Format: cell-based, human
# Settings: fluorescently labelled, transfection reagent free
# Experimental: Cellular uptake experiments were performed by plating cells (1×10^4) in an 8 well chamber slide. At 70% confluency, the cells were transfected with 50 nM Cy3-cpRNA and incubated at 37° C. for 24 h. Control wells were left untreated. Each transfection was performed in triplicate. […] The slides were mounted using Vectashield mounting medium containing 4′, 6-diamidino-2-phenylindole (DAPI) (Vector Labs, Burlingame, Calif.) to stain the nuclei of cells.
# MG63—human osteosarcoma cells were cultured in α-MEM (Sigma-Aldrich, Haverhill, UK) medium containing 10% FBS, 1% L-Glutamine, and 1% antibiotics (PeSt) at 37° C. with 5% CO2. One day prior to the siRNA treatment, 35,000 cells were plated per each well of a 24-well plate. On the experiment day, cells were replaced with 10% heat inactivated-FBS containing α-MEM medium with 1% L-Glutamine, and 1% antibiotics (PeSt). Fluorescently (Cy3) labelled CP-siRNA and nicked CP-siRNA having GAPDH targeting sequence (final concentration: 50 nM) was given to the each well. After 24 hours the cells were washed with PBS and fixed with 4% formaldehyde for 20 mins at room temperature and then washed twice with PBS. DAPI (1 ug/ml in PBS) was added to cells for 5 mins and then washed with PBS. The cells were then visualized in Nikon TiU at 20×+1.5× and analysed with the Nikon Imaging software.
row,Substance,cellular distribution
1,"CP-siRNA: GAPDH CP-siRNA, sense SEQ ID NO: 26 with dT5, antisense SEQ ID NO: 27; Cy3 labelled for imaging (sense CCGAGCCACAUCGCUCAGATTTTT; antisense UCUGAGCGAUGUGGCUCGGTT; sense: sugars from the 5' end r19 d5, backbone not given here; antisense: sugars from the 5' end r19 d2, backbone not given here; Cy3 label)",perinuclear distribution
2,"nicked CP-siRNA: Nicked GAPDH CP-siRNA, sense SEQ ID NO: 28, nicked antisense sequences a and b SEQ ID NO: 29 and 30 (sense CCGAGCCACAUCGCUCAGATTTTT; antisense 1 UCUGAGCGAU; antisense 2 GUGGCUCGG; sense: sugars from the 5' end r19 d5, backbone not given here; antisense 1: RNA, backbone not given here; antisense 2: RNA, backbone not given here; further chemistry not fully specified)",some nuclear localization

# Tested on: 3p or 5p miR34a target-site in 3′ UTR of Renilla luciferase
# Assay: Dual glo assay of miR34a strand selection in HCT116 cells
# Format: cell-based, human
# Settings: 50 nM miRNA, 300 ng plasmid, RNAiMAX, 24 h
# Experimental: For all experiments RNAiMAX was used for transfection of both plasmid and miRNA in accordance with manufacturer's instructions, but with altered RNA and plasmid concentrations. For Dual glo assay, cells were co-transfected with 50 nM miRNA and 300 ng plasmid. For qPCR cells were transfected with 100 nM miRNA.
# HCT116 cells were seeded 10000 cells per well in a 96 well plate and transfected with both plasmid and miRNA 24 hours later. All transfections were performed in triplicates. The plasmids used were the dual luciferase reporter plasmid with either a 3p or 5p miR34a target-site cloned into the 3′ UTR (denoted plasmid 3 or plasmid 5). After 24 hours 75 μl of Dual glo firefly substrate (Promega) was added to each well. 100 μl of cell-lysate was moved to a microtiter plate after 10 minutes of incubation and luminescence was measured and it was followed by addition of 75 μl of Stop glo Renilla substrate (Promega) to the same plate and luminescence was measured again after 10 minutes of incubation. The Renilla luminescence values were normalized against the firefly luminescence values and expressed as a percentage of the negative control, a scrambled non-functional miRNA.
# Dual glo assay and RT-qPCR were performed to identify the degree of strand selection of the modified miRNA. First, we designed two different plasmids (psiCheck2 vector) such that miRNA target-sequence (3p or 5p) is cloned into the 3′-UTR of the Renilla luciferase gene (see FIG. 16) with firefly luciferase as the internal control to normalize the Renilla luciferase expression. We estimated the levels of the individual strand recruitment (3p or 5p) using the dual-glo luminesce assay. The target-sequence corresponds exactly to either the 3p or 5p strands, and a change in luminescence can be directly attributed to the gene silencing efficiency.
# Four independent trials of dual glo assay were performed, with each of the samples in triplicates. Luminescence is shown as a percentage of the scrambled miRNA which serves as the negative control. Two different modifications were used on each of the strands of the miR34a (see Table 5). The miR34a was modified to make the 5p strand the guide strand by incorporating three deoxy thymidine residues at the 3′ end of the 3p strand (mod5a).
row,Substance,strand selection (Dual glo luminescence)
1,"mod5b: miR34a with five deoxy thymidines added to 3′ end of 3p strand, SEQ ID NO: 38 and 21 (chain 1 CAAUCAGCAAGUAUACUGCCCUTTTTT; chain 2 UGGCAGUGUCUUAGCUGGUUGU; chain 1: sugars from the 5' end r22 d5, backbone not given here; chain 2: RNA, backbone not given here)",3p strand being less chosen as the guide strand
2,"mod3b: miR34a with five deoxy thymidines added to 3′ end of 5p strand, SEQ ID NO: 20 and 36 (chain 1 CAAUCAGCAAGUAUACUGCCCU; chain 2 UGGCAGUGUCUUAGCUGGUUGUTTTTT; chain 1: RNA, backbone not given here; chain 2: sugars from the 5' end r22 d5, backbone not given here)",slight increase in strand selection but this was not statistically significant
3,"mod3a: miR34a with three deoxy thymidines added to 3′ end of 5p strand, SEQ ID NO: 20 and 35 (chain 1 CAAUCAGCAAGUAUACUGCCCU; chain 2 UGGCAGUGUCUUAGCUGGUUGUTTT; chain 1: RNA, backbone not given here; chain 2: sugars from the 5' end r22 d3, backbone not given here)",slight increase in strand selection but this was not statistically significant
4,"mod5a: miR34a with three deoxy thymidines added to 3′ end of 3p strand, SEQ ID NO: 37 and 21 (chain 1 CAAUCAGCAAGUAUACUGCCCUTTT; chain 2 UGGCAGUGUCUUAGCUGGUUGU; chain 1: sugars from the 5' end r22 d3, backbone not given here; chain 2: RNA, backbone not given here)",3p strand being less chosen as the guide strand
